# Results reported in patent US8791267B2, “Biaryl PDE4 inhibitors for treating inflammatory, cardiovascular and CNS disorders” (Decode Genetics EHF, priority 2007, dated 2014).
# Where a name gives a salt, the structure may show the parent alone. Read-outs that look alike come from different tables or passages of the source.
# Assays:
# [1] = molecular target: PDE4 (Homo sapiens, UniProt Q08499); assay: In-vitro assay for PDE4 enzymes, real-time enzyme-coupled spectrophotometric assay (Table 9); assay type: biochemical
# [2] = molecular target: PDE4B (Homo sapiens, UniProt Q07343); assay: In-vitro assay for PDE4 enzymes, real-time enzyme-coupled spectrophotometric assay, PDE4B Activity (Table 10); assay type: biochemical
# [3] = human PDE4D, activity class, Table 9, read-out: hPDE4D
# [4] = human PDE4B (hPDE4B), enzyme-coupled spectrophotometric assay, read-out: PDE4B Activity, hPDE4B
# Chain of PDE4B (Q07343 whole entry): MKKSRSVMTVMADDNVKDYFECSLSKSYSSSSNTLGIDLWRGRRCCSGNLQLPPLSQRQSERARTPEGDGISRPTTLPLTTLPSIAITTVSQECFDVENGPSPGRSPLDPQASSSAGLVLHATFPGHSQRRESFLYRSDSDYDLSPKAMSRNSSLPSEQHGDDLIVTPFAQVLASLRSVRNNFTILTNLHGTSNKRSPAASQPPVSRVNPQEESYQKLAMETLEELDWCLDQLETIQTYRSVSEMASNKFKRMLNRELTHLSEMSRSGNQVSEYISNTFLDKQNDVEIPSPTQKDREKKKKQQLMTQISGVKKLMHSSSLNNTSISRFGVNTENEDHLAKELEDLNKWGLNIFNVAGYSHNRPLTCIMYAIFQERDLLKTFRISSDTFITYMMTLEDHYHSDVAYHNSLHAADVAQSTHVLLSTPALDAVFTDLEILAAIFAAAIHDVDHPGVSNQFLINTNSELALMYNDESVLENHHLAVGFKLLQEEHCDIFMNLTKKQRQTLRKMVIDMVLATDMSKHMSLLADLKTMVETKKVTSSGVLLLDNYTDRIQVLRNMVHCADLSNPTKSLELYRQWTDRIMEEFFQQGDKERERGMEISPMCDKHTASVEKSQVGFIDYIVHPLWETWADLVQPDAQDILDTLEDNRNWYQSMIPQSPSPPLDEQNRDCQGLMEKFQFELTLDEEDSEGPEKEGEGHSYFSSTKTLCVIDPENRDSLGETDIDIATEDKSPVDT
# Chain of PDE4 (Q08499 whole entry): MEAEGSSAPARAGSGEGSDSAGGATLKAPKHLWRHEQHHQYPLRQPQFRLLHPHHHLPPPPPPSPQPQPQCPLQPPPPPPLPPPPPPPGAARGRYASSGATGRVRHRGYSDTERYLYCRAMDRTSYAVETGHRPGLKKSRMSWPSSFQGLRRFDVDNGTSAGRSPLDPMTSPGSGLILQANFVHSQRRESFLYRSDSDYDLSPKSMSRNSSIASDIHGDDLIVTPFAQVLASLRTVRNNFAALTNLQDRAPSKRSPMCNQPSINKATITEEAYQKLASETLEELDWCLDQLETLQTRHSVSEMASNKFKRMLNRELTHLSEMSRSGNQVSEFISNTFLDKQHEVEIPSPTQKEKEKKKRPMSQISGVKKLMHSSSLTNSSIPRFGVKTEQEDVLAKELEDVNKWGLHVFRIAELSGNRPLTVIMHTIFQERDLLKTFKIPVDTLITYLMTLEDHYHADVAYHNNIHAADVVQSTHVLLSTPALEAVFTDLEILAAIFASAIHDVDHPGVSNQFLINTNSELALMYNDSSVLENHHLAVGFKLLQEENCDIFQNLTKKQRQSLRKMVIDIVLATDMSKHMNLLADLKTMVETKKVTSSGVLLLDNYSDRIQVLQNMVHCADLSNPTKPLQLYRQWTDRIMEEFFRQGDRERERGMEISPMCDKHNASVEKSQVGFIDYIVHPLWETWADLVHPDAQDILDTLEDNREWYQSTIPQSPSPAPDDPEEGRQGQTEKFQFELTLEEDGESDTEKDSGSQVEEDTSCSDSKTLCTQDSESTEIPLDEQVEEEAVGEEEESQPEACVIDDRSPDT
"IC50 [1, 3]","IC50 [2, 4]",SMILES,IC50 [1],IC50 [2]
< 5 µM,< 5 µM,"COc1ccc(Cc2ccc(C(C)N)nc2)c(F)c1-c1cccc(Cl)c1 (stereo not drawn) [P-606, 1-[5-(3′-Chloro-2-fluoro-6-methoxy-biphenyl-3-ylmethyl)-pyridin-2-yl]-ethylamine]",–,–
< 5 µM,< 5 µM,"CCNC(=O)Nc1ccc(Cc2ccc(OC)c(-c3cccc(C#N)c3)c2)cn1 [P-400, 1-[5-(3′-Cyano-6-methoxy-biphenyl-3-ylmethyl)-pyridin-2-yl]-3-ethyl-urea]",–,–
< 5 µM,5 to 20 µM,"COc1ccc(Cn2cncn2)cc1-c1cccc(C#N)c1 [P-081, 2′-Methoxy-5′-[1,2,4]triazol-1-ylmethyl-biphenyl-3-carbonitrile]",–,–
< 5 µM,< 5 µM,COc1ccc(Cc2ccc(F)cc2)c(F)c1-c1cccc(Cl)c1 [P-187],–,–
< 5 µM,5 to 20 µM,"COc1ccc(Nc2ccc(NC(N)=O)cc2)cc1-c1cccc(C(C)=O)c1 [P-268, [4-(3′-acetyl-6-methoxy-biphenyl-3-ylamino)-phenyl]-urea]",–,–
< 5 µM,< 5 µM,"CCOc1ccc(Cc2ccc(OC)c(-c3cccc(Cl)c3)c2F)s1 [P-310, 2-(3′-Chloro-2-fluoro-6-methoxy-biphenyl-3-ylmethyl)-5-ethoxythiophene]",–,–
< 5 µM,21 to 40 µM,"COc1ccc(Cc2ccc(C(C)(C)N)nc2)cc1-c1cccc(Cl)c1 [P-600, hydrochloride]",–,–
< 5 µM,< 5 µM,"COc1ccc(Cc2ccc(S(N)(=O)=O)cc2)cc1-c1cccc(Cl)c1 [P-266, 4-(3′-Chloro-6-methoxy-biphenyl-3-ylmethyl)-benzenesulfonamide]",–,–
< 5 µM,< 5 µM,"COc1ccc(Cc2cnc(N3CC(O)C3)nc2)c(F)c1-c1cccc(C#N)c1 [P-417, 2′-Fluoro-3′-[2-(3-hydroxy-azetidin-1-yl)-pyrimidin-5-ylmethyl]-6′-methoxy-biphenyl-3-carbonitrile]",–,–
< 5 µM,< 5 µM,"COc1ccc(Cc2ccc(CO)nc2)c(F)c1-c1cccc(Cl)c1 [P-599, [5-(3′-Chloro-2-fluoro-6-methoxy-biphenyl-3-ylmethyl)-pyridin-2-yl]-methanol]",–,–
< 5 µM,< 5 µM,"COc1ccc(Cc2ccc(N(C)C)nc2)c(F)c1-c1cccc(Cl)c1 [P-473, [5-(3′-Chloro-2-fluoro-6-methoxy-biphenyl-3-ylmethyl)-pyridin-2-yl]-dimethyl-amine]",–,–
< 5 µM,5 to 20 µM,"COc1ccc(Cn2cncn2)cc1-c1cccc(C(C)=O)c1 [P-082, 1-(2′-Methoxy-5′-[1,2,4]triazol-1-ylmethyl-biphenyl-3-yl)-ethanone]",–,–
< 5 µM,< 5 µM,COc1ccc(Cc2ccc(C#N)c(F)c2)c(F)c1-c1cccc(Cl)c1 [P-274],–,–
< 5 µM,< 5 µM,"COc1ccc(Cc2ccc(N3CCNC3=O)nc2)c(F)c1-c1cccc(Cl)c1 [P-388, 1-[5-(3′-Chloro-2-fluoro-6-methoxy-biphenyl-3-ylmethyl)-pyridin-2-yl]-imidazolidin-2-one]",–,–
5 to 20 µM,5 to 20 µM,COc1ccc(Cc2ccccc2CN)cc1-c1cccc([N+](=O)[O-])c1 [P-133],–,–
< 5 µM,< 5 µM,"CCNC(=O)Nc1ccc(Sc2ccc(OC)c(-c3cccc(Cl)c3)c2)cc1 [P-448, 1-[4-(3′-Chloro-6-methoxy-biphenyl-3-ylsulfanyl)-phenyl]-3-ethyl urea]",–,–
< 5 µM,< 5 µM,COc1ccc(Cc2ccncc2)cc1-c1ccc2nonc2c1 [P-011],–,–
< 5 µM,< 5 µM,"COc1c(F)cc(Cc2ccc(NC(N)=O)cc2)cc1-c1cccc(Cl)c1 [P-550, [4-(3′-chloro-5-fluoro-6-methoxy-biphenyl-3-ylmethyl)-phenyl]-urea]",–,–
< 5 µM,< 5 µM,COc1ccc(Cc2ccc(NC(=O)CNC(=O)OC(C)(C)C)cc2)cc1-c1cccc([N+](=O)[O-])c1 [P-143],–,–
< 5 µM,< 5 µM,"COc1ccc(Cc2cnc(O[C@@H]3CCN(C)C3)nc2)c(F)c1-c1cccc(Cl)c1 [P-406, 5-(3′-Chloro-2-fluoro-6-methoxy-biphenyl-3-ylmethyl)-2-((R)-1-methyl-pyrrolidin-3-yloxy)-pyrimidine]",–,–
< 5 µM,< 5 µM,"CNC(=O)NCc1ccc(Cc2ccc(OC)c(-c3cccc(Cl)c3)c2)cn1 [P-593, 1-[5-(3′-chloro-6-methoxy-biphenyl-3-ylmethyl)-pyridin-2-ylmethyl]-3-methyl-urea hydrochloride]",–,–
< 5 µM,< 5 µM,NC(=O)Nc1ccc(Cc2ccc(OC(F)F)c(-c3cccc([N+](=O)[O-])c3)c2F)cc1 [P-316],–,–
< 5 µM,< 5 µM,"COc1ccc(Cc2ccnc(C#N)c2)c(F)c1-c1cccc(Cl)c1 [P-433, 4-(3′-Chloro-2-fluoro-6-methoxy-biphenyl-3-ylmethyl)-pyridine-2-carbonitrile]",–,–
< 5 µM,5 to 20 µM,NC(=O)Nc1ccc(Cc2ccc(O)c(-c3cccc([N+](=O)[O-])c3)c2F)cc1 [P-508],–,–
< 5 µM,5 to 20 µM,"COc1ccc(Cc2cccc(NC(N)=O)c2)cc1-c1cccc(Cl)c1 [P-270, [3-(3′-Chloro-6-methoxy-biphenyl-3-ylmethyl)-phenyl]-urea]",–,–
–,–,COc1ccc(Cc2ccc(OC(N)=O)cc2)c(F)c1-c1cccc(Cl)c1 [P-221],< 5 µM,< 5 µM

"IC50 [1, 3]","IC50 [2, 4]",SMILES,IC50 [1],IC50 [2]
5 to 20 µM,21 to 40 µM,"COc1ccc(CN2CCC[C@H]2CO)cc1-c1cccc([N+](=O)[O-])c1 [P-072, [(S)-1-(6-Methoxy-3′-nitro-biphenyl-3-ylmethyl)-pyrrolidin-2-yl]-methanol]",–,–
< 5 µM,< 5 µM,"COc1cc(F)c(Cc2ccc(F)cc2)cc1-c1cccc([N+](=O)[O-])c1 [P-094, 4-Fluoro-5-(4-fluoro-benzyl)-2-methoxy-3′-nitro-biphenyl]",–,–
< 5 µM,5 to 20 µM,COc1ccc(Cc2ccc(OCCN3CCCC3)cc2)cc1-c1cccc([N+](=O)[O-])c1 [P-165],–,–
–,21 to 40 µM,"COc1ccc(Cc2cc(N)cc(O)c2)c(F)c1-c1cccc(Cl)c1 [P-324, 3-Amino-5-(3′-chloro-2-fluoro-6-methoxy-biphenyl-3-ylmethyl)-phenol]",–,–
–,5 to 20 µM,CNC(=O)Cc1ccc(OC)c(-c2cccc([N+](=O)[O-])c2)c1 [Cmpd P-027],–,–
–,5 to 20 µM,COc1ccc(CO)c(O)c1-c1cccc([N+](=O)[O-])c1 [Cmpd P-149],–,–
–,21 to 40 µM,"COc1ccc(CN2CCCC2=O)nc1-c1cccc([N+](=O)[O-])c1 [P-031, 1-[5-methoxy-6-(3-nitro-phenyl)-pyridin-2-ylmethyl]-pyrrolidin-2-one]",–,–
–,< 5 µM,"COc1ccc(Cc2ccncc2)nc1-c1cccc([N+](=O)[O-])c1 [P-019, 3-methoxy-2-(3-nitro-phenyl)-6-pyridin-4-ylmethyl-pyridine]",–,–
< 5 µM,–,COc1ccc(Cn2cncn2)cc1-c1cccc([N+](=O)[O-])c1 [P-005],–,–
5 to 20 µM,–,"COCCOc1ccc(Cc2ccc(=O)n(CCOC)n2)cc1-c1cccc([N+](=O)[O-])c1 [P-018, 6-[6-(2-Methoxy-ethoxy)-3′-nitro-biphenyl-3-ylmethyl]-2-(2-methoxy-ethyl)-2H-pyridazin-3-one]",–,–
< 5 µM,–,COc1ccc(Cn2cc(-c3ccc(NC(N)=O)cc3)cn2)c(F)c1-c1cccc(Cl)c1 [P-435],–,–
–,21 to 40 µM,"COc1ccc(CN2C[C@@H](OC(N)=O)CC2=O)cc1-c1cccc([N+](=O)[O-])c1 [P-253, Carbamic acid (S)-1-(6-methoxy-3′-nitro-biphenyl-3-ylmethyl)-5-oxo-pyrrolidin-3-yl ester]",–,–
< 5 µM,–,"[2H]C(O)(c1ccc([N+](=O)[O-])cc1)c1ccc(OC)c(-c2cccc(Cl)c2)c1F (stereo not drawn) [P-537, deutero-(3′-chloro-2-fluoro-6-methoxy-biphenyl-3-yl)-(4-nitro-phenyl)-methanol]",–,–
< 5 µM,–,COc1ccc(Cc2ccc(Nc3nccs3)cc2)c(F)c1-c1cccc(Cl)c1 [P-466],–,–
< 5 µM,–,"CCNC(=O)Nc1ccc(S(=O)(=O)c2ccc(OC)c(-c3cccc(Cl)c3)c2)cc1 [P-450, 1-[4-(3′-Chloro-6-methoxy-biphenyl-3-sulfonyl)-phenyl]-3-ethyl-urea]",–,–
< 5 µM,–,"COc1ccc([C@@](C)(O)c2ccc(NC(C)=O)cc2)c(F)c1-c1cccc(Cl)c1 (single isomer, unassigned) [P-561]",–,–
< 5 µM,–,"COc1ccc(C(O)c2ccc(C#N)cc2)c(O)c1-c1cccc([N+](=O)[O-])c1 (stereo not drawn) [P-137, 4-[Hydroxy-(2-hydroxy-6-methoxy-3′-nitro-biphenyl-3-yl)-methyl]benzonitrile]",–,–
5 to 20 µM,–,"COc1ccc(Cc2ccc(F)cc2)cc1-c1cccc(N2CCOCC2)c1 [P-385, 4-[5′-(4-Fluoro-benzyl)-2′-methoxy-biphenyl-3-yl]-morpholine]",–,–
< 5 µM,–,"FC(F)Oc1ccc(Cc2ccc(N3CCC3)nc2)cc1-c1cccc(Cl)c1 [P-614, 2-Azetidin-1-yl-5-(3′-chloro-6-difluoromethoxy-biphenyl-3-ylmethyl)-pyridine]",–,–
< 5 µM,–,COc1ccc(COc2ccnc(N3CCCC3)c2)cc1-c1cccc(Cl)c1 [P-607],–,–
< 5 µM,–,COc1ccc(Cc2ccc(F)cc2)c(F)c1-c1cccc(N)c1 [P-098],–,–
< 5 µM,–,"COc1ccc(Cc2ccc(N3CCOCC3)nc2)cc1-c1cccc(Cl)c1 [P-572, 4-[5-(3′-chloro-6-methoxy-biphenyl-3-ylmethyl)-pyridin-2-yl]-morpholine]",–,–
< 5 µM,–,COc1ccc(Cc2ccc(OCCN3CCOCC3)cc2)c(F)c1-c1cccc(Cl)c1 [P-219],–,–
< 5 µM,–,COc1ccc(CO)c(O)c1-c1cccc([N+](=O)[O-])c1 [P-149],–,–
< 5 µM,–,"COc1ccc(Cc2ccc(F)cc2)cc1-c1cccc(Cl)n1 [P-391, 2-Chloro-6-[5-(4-fluoro-benzyl)-2-methoxy-phenyl]-pyridine]",–,–
< 5 µM,–,"[2H]C(O)(c1ccc(N)cc1)c1ccc(OC)c(-c2cccc(Cl)c2)c1F (stereo not drawn) [P-538, deutero-(4-amino-phenyl)-(3′-chloro-2-fluoro-6-methoxy-biphenyl-3-yl)-methanol]",–,–
